{
  "source": "patent US8097650B2",
  "about": "“Method of treating a condition associated with phosphorylation of TASK-1” (The Trustees of Columbia University In The City of New York, priority 2005, dated 2012)",
  "key": {"TASK-1 [1]": {"target": "T1, TASK-1 (Mus musculus, UniProt O35111)", "T1 construct": "endogenous in cells; host or cells: adult mouse ventricular myocytes (C57/B16 background; WT or PAFR KO)", "test": "C-PAF-sensitive steady-state current in murine ventricular myocytes (voltage clamp)", "assay_type": "cell-based", "description": "(§1) Adult mice, 2-3 months old, were anesthetized with ketamine/xylazine and their hearts were removed according to protocols approved by the Columbia University-IACUC. Experiments were performed on single rod-shaped, quiescent ventricular myocytes dissociated using a standard retrograde collagenase perfusion (Kuznetsov V et al. (1995) Circ Res 76: 40-52) from hearts of mice that were either wild-type (WT), or PAFR knockouts (KO). Both WT and KO mice were bred on a C57/B16 background. The derivation of the KO mice has been described previously (Hoffman, B F et al.(1996) J Cardiovasc Electrophysiol 7:120-133).\n(§2) Prior to electrophysiological measurements, cells were placed into the perfusion chamber and superfused at room temperature with Tyrode's buffer (in mM: NaCl, 140; KCl, 5.4; CaCl2 1; MgCl2, Hepes, 5; Glucose, 10; pH 7.4). The whole-cell patch clamp technique was used with pipettes having resistances of 1.5-3 MΩ (intracellular solution, in mM: aspartic acid, 130; KOH, 146; NaCl, 10; CaCl2, 2; EGTA, 5; Hepes, 10; MgATP, 2; pH 7.2). Solutions of C-PAF, the PAFR antagonist, CV-6209 (Biomol) and the PKC inhibitor, bisindolylmaleimide I (BIM I; Calbiochem) were prepared in water and diluted in Tyrode's before use. […] A custom-made fast perfusion device was used to exchange the solution around the cell within 1 s (DiFrancesco et al. (1986) J Physiol 377: 61-88).\n(§3) Current and voltage protocols were generated using Clampex 7.0 software applied by means of an Axopatch 200B amplifier and a Digidata 1200 interface (Axon Instruments). During voltage clamp, steady state current traces were acquired at 500 Hz and final filtered at 10 Hz. During current clamp, membrane voltage was acquired at 5 KHz and filtered at 1 KHz. Ramp clamps were conducted by imposing a voltage ramp (14 mV/s) at a 500 Hz acquisition rate with 1 kHz filtering. Data were analyzed using pCLAMP 8.0 (Axon) and Origin 6.0 (Microcal) and are presented as mean±SEM. Steady-state current was determined by computer calculation of average current over a time period of at least 5 s. In all experiments, the n value indicates the number of myocytes studied, and represents pooled data from at least 2 (voltage clamp) or 3 (current clamp) animals. Student's t-test, one-way ANOVA and χ^2 tests were used; a value of p<0.05 was considered statistically significant. Records have been corrected for the junction potential, which was measured to be 9.8 mV."}, "TASK-1 [2]": {"target": "T1, TASK-1", "test": "Methanandamide-sensitive current in murine ventricular myocytes", "assay_type": "cell-based", "description": "as §2\nCurrent and voltage protocols were generated using Clampex 7.0 software applied by means of an Axopatch 200B amplifier and a Digidata 1200 interface (Axon Instruments). During voltage clamp, steady state current traces were acquired at 500 Hz and final filtered at 10 Hz. […] Data were analyzed using pCLAMP 8.0 (Axon) and Origin 6.0 (Microcal) and are presented as mean±SEM. Steady-state current was determined by computer calculation of average current over a time period of at least 5 s. […] Records have been corrected for the junction potential, which was measured to be 9.8 mV."}, "quiescent myocytes": {"test_system": "quiescent myocytes", "test": "Spontaneous activity in quiescent mouse ventricular myocytes (current clamp)", "assay_type": "cell-based", "description": "as §1, §2, §3"}, "murine TASK-1 [3]": {"test_system": "murine TASK-1", "test": "TASK-1 current expressed in CHO cells (whole-cell ramp clamp)", "assay_type": "cell-based, mouse", "description": "The TASK-1 clone (provided by Professor Y. Kurachi, Osaka University) was co-transfected in CHO cells with CD8 plasmid using Lipofectamine Plus (Invitrogen) according to the manufacturer's instructions. 48 h later cells were transferred to the electrophysiology chamber and anti-CD8 coated beads (Dynal Biotech) were added to identify CD8 expressing cells. Expressing cells were voltage clamped using a ramp clamp (see below). CHO cells were used in these experiments, in part, because they express endogenous PAFR.\nChinese hamster ovary cells (CHO) were grown in F-12 medium supplemented with 10% fetal bovine serum. Twenty-four hours prior to transfection, cells were seeded into 6 well plates at 80-90% of confluence. Transfections were carried out with the GeneJammer transfection reagent (Stratagene) according to the manufacturer's instructions. Briefly, cells were washed with PBS and their medium replaced with supplemented F-12 medium (900 μl/well). For each well, GeneJammer (6 μl) was incubated with Opti-MEM (90 μl) followed by the addition of DNA (1 μg). This mixture was then added to the wells and 3 h later an additional 2 ml of supplemented F-12 medium was added. After incubating overnight, the cells were washed and their medium replaced.\nCells were either co-transfected with pCMV-TASK1 together with pEGFP-C1 (1 μg total, 3:1) or transfected with […] or T381A-pTIE (1 μg). 48 h after the transfection the cells were checked under the microscope for green fluorescence. Approximately 20% of the cells were positive for EGFP and these were then used for patch-clamp experiments. Due to the culture-to-culture variability in the expression of TASK-1 current, most comparisons were made on matched controls from the same transfection. Summary results were then obtained by pooling data from several different culture preparations.\nThe myocyte suspension or the coverslip with CHO cells was placed into a perfusion chamber, mounted on the stage of an inverted microscope. Unless otherwise indicated, CHO cells were superfused at room temperature with standard external Tyrode's buffer, containing (mM): NaCl, 140; KCl, 5.4; CaCl2, 1; MgCl2, 1; HEPES, 5; glucose, 10; adjusted to pH 7.4. Recordings were begun after the current reached a stable baseline (usually 3 to 4 min after initial cell rupture). In myocytes, TASK-1 current is small and exists in the presence of numerous larger K^+ currents. In order to increase the inward component of TASK-1 current and to block other potassium currents in myocytes, a modified high K^+ external solution (modified Tyrode's) was used to reduce outward rectification of TASK-1 current. The composition of this solution-was (in mM): NaCl, 100; KCl, 50; CaCl2, 1; MgCl2, 1; HEPES, 5; glucose, 10; tetraethylammonium (TEA), 1; CsCl, 5; adjusted to pH 7.4. Membrane potential and current were measured in the whole cell configuration using borosilicate glass pipettes with a tip resistance between […] and filled with a pipette solution containing (mM): aspartic acid, 130; KOH, 146; NaCl, 10; CaCl2, 2; EGTA, 5; HEPES, 10; MGATP, 2; pH 7.2. The stock solutions of C-PAF and of the PKC inhibitor, bisindolylmaleimide (BIM-I; Calbiochem), were prepared in water and diluted to the final concentrations in Tyrode's or modified Tyrode's, as appropriate. The PKC activator, PMA, was prepared in DMSO and then diluted in Tyrode's. […] Myocytes treated with the peptides were monitored continuously beginning immediately after rupture to detect the occurrence of any arrhythmias during dialysis of the peptide. Application of C-PAF to cells treated with the inhibitor peptide was started after the peptide had been permitted to dialyse into the cell (8-10 min after rupture for CHO or 10-12 min after rupture for myocytes).\nThe current and the voltage protocols were generated using Clampex 8.0 software applied by means of an Axopatch 200-B and a Digidata 1200 interface (Axon Instruments). […]"}, "PKC": {"target": "PKC", "details": "cited from earlier work"}, "[4]": {"test_system": "murine TASK-1 T381A mutant", "test": "T381A mutant TASK-1 current in CHO cells", "assay_type": "cell-based, mouse", "description": "pCMV-TASK1 (cTBAK) consists of a 1.9 kb sequence of murine TASK-1 inserted in pcDNA3.1 (a kind gift of Dr. Yoshihisa Kurachi, University of Osaka, Japan) and has been previously described (Leonoudakis D et al. (1998) J Neurosci 18: 868-877). pEGFP-C1 and pIRES-EGFP were purchased from Clontech. pTIE (TASK1-IRES-EGFP) was constructed by inserting a 1.9 kb EcoR1 fragment from pCMV-TASK1 into EcoR1 digested pIRES-EGFP. Site-directed mutagenesis was performed on pTIE using the Quik-Change kit (Stratagene) following the manufacturer's instructions. […]\nCells were either co-transfected with pCMV-TASK1 together with pEGFP-C1 (1 μg total, 3:1) or transfected with […] or T381A-pTIE (1 μg). 48 h after the transfection the cells were checked under the microscope for green fluorescence. […]\nThe myocyte suspension or the coverslip with CHO cells was placed into a perfusion chamber, mounted on the stage of an inverted microscope. […] Membrane potential and current were measured in the whole cell configuration using borosilicate glass pipettes with a tip resistance between […] and filled with a pipette solution containing (mM): aspartic acid, 130; KOH, 146; NaCl, 10; CaCl2, 2; EGTA, 5; HEPES, 10; MGATP, 2; pH 7.2. […] Myocytes treated with the peptides were monitored continuously beginning immediately after rupture to detect the occurrence of any arrhythmias during dialysis of the peptide. […]"}, "human TASK-1 T383A": {"test_system": "human TASK-1 T383A", "test": "Human TASK-1 T383A mutant current in CHO cells", "assay_type": "cell-based", "details": "Tyrode's pH 8, ramp", "description": "FIGS. 24A-24B. Mutations in human TASK-1 remove the sensitivity to C-PAF and PMA when the channel is expressed in CHO cells. Two human TASK-1 (hTASK-1) mutants in which either serine-358 was converted to alanine (S358A) or threonine-383 was converted to alanine (T383A) were generated and separately expressed in CHO cells. The C-PAF-sensitive (24A) and PMA-sensitive currents (24B) were obtained in Tyrode's at pH 8 using a ramp protocol in […] configuration, essentially as described in FIG. 15. […] However, the S358A channel was not inhibited in the presence of C-PAF (24A) and the T383A channel was not inhibited by PMA (24B)."}, "[5]": {"test_system": "adult rat ventricular myocytes", "test": "Methanandamide-induced arrhythmias in cultured adult rat ventricular myocytes", "assay_type": "cell-based", "details": "paced at 1 Hz", "description": "FIG. 28. Methanandamide-induced arrhythmias are prevented by over expression of TREK-1 in cultured myocytes. The action potentials of cultured adult rat ventricular myocytes were recorded in current clamp mode during stimulation at 1 Hz.\nThe action potentials of cultured adult rat ventricular myocytes were recorded in current clamp mode during stimulation at 1 Hz."}, "murine TASK-1 [6]": {"test_system": "murine TASK-1", "details": "typical, from Barbuti et al. 2002; cited from earlier work"}},
  "note": "Read-outs that look alike come from different tables or passages of the source.",
  "data": [
    {"smiles": "CN(C)CCCn1cc(C2=C(c3c[nH]c4ccccc34)C(=O)NC2=O)c2ccccc21", "note": "[BIM I, bisindolylmaleimide I]", "values": [
      {"measurement": "effect on C-PAF-sensitive current", "setting": "TASK-1 [1]; BIM I 100 nM, −10 mV", "result": "completely blocked"},
      {"measurement": "effect of PKC inhibitor or inactive analogue on C-PAF-sensitive current", "setting": "TASK-1 [1]; BIM I 40 and 100 nM, BIM V, −10 mV", "result": "blocked in a dose-dependent manner"},
      {"measurement": "effect on methanandamide-sensitive current", "setting": "TASK-1 [2]; BIM I 100 nM, WT myocytes", "result": "significantly reduced"},
      {"measurement": "quiescent WT cells that failed to respond to C-PAF", "setting": "quiescent myocytes; BIM I 100 nM, C-PAF 185 nM", "result": "6 of 8"},
      {"measurement": "C-PAF-sensitive current in the presence of PKC inhibitor", "setting": "murine TASK-1 [3]; BIM-I 100 nM, C-PAF 185 nM", "result": "no measurable C-PAF-sensitive current"},
      {"measurement": "Ki", "setting": "PKC", "result": 14, "unit": "nM"}
    ]},
    {"smiles": "CCCCCCCCCCCCCC(=O)O[C@@H]1[C@@H](C)[C@@]2(O)[C@@H](C=C(CO)C[C@]3(O)C(=O)C(C)=C[C@@H]23)[C@@H]2C(C)(C)[C@]12OC(C)=O", "note": "[PMA, phorbol 12-myristate 13-acetate]", "values": [
      {"measurement": "TASK-1 current density in the presence of drug", "setting": "murine TASK-1 [3]; +30 mV, C-PAF 185 nM or PMA 100 nM, no peptide", "result": "59.2±10.1", "unit": "pA/pF"},
      {"measurement": "inhibition of TASK-1 current", "setting": "murine TASK-1 [3]; +30 mV, PMA 100 nM (n=17), C-PAF 185 nM (n=20)", "result": "19.8±2.7", "unit": "%"},
      {"measurement": "TASK-1 current density after drug", "setting": "murine TASK-1 [3]; PKCε-inhibitor peptide 100 nM in pipette, C-PAF 185 nM or PMA 100 nM", "result": "41.2±12.3", "unit": "pA/pF"},
      {"measurement": "TASK-1 current density after drug", "setting": "murine TASK-1 [3]; scrambled peptide 100 nM in pipette, PMA 100 nM", "result": "36.6±6.2", "unit": "pA/pF"},
      {"measurement": "sensitivity of mutant channel to PMA", "setting": "[4]", "result": "nor is it sensitive to PMA treatment"},
      {"measurement": "inhibition of T383A channel", "setting": "human TASK-1 T383A", "result": "not inhibited"}
    ]},
    {"smiles": "CCCCC/C=C\\C/C=C\\C/C=C\\C/C=C\\CCCC(=O)N[C@H](C)CO", "note": "[methanandamide]", "values": [
      {"measurement": "effect on C-PAF-sensitive current", "setting": "TASK-1 [1]; held at −10 mV, C-PAF 185 nM, Ba2+ 3 mM, Zn2+ 3 mM, lipids and ATFK 10 μM", "result": "inhibited"},
      {"measurement": "methanandamide-sensitive current with PAFR blocked or absent", "setting": "TASK-1 [2]; methanandamide 10 μM, CV-6209 100 nM or PAFR KO myocytes", "result": "fully effective"},
      {"measurement": "quiescent WT myocytes with spontaneous action potentials", "setting": "quiescent myocytes; methanandamide 10 μM", "result": "7 of 12"},
      {"measurement": "arrhythmias in control cells expressing only GFP", "setting": "[5]", "result": "typical arrythmias were observed"},
      {"measurement": "arrhythmias in myocytes overexpressing GFP and TREK-1", "setting": "[5]", "result": "unable to induce arrhythmias"},
      {"measurement": "inhibition of TASK-1 current", "setting": "murine TASK-1 [6]", "result": "approximately 60%"}
    ]}
  ]
}
